Assay results as given in PubChem BioAssay AID1918991 (Molecular Pharmacology Branch, DTP, NCI, 2023).
Values belong to the compound of their own block, whether it stands above or below them.

System: 186277-243-T-J2-PDC complex spheroid growth
Assay: Anticancer human tumor 186277-243-T-J2-PDC patient-derived colon adenocarcinoma cell line growth inhibition [AhR]
Settings: for IC50: curve of first compound; for viability, T/C: stronger effect = lower value
Text: Multicellular complex tumor spheroid response to aryl hydrocarbon receptor antagonists in combination with a variety of drugs and investigational agents in selected tumor cell lines
The current study was undertaken to assess response to aryl hydrocarbon receptor antagonists in combination with standard-of-care drugs and investigational agents in solid tumor complex spheroid models. Complex spheroids include a stromal component modeled by human endothelial cells (HUVEC) and fibroblasts modeled by human mesenchymal stem cells (MSCs). The concentration ranges selected for each drug and investigational agent were based upon clinically achievable concentrations if the clinical Cmax of the agent was known.
Compounds. The drugs and investigational agents: BAY 2416964 (NSC825713), GNF351 (NSC835774), CH-223191 (NSC835775), CPI-455 (NSC825282), aza-TdCyd (NSC777586), decitabine (NSC127716), belinostat (NSC758774), entinostat (NSC756642), pevonedistat (NSC761192), tazemetostat (NSC777109), talazoparib (NSC765396), olaparib (NSC753686), selinexor (NSC780203), nedisertib (M3814, NSC802822), bortezomib (NSC756655), venetoclax (NSC766270), doxorubicin (NSC123127), elimusertib (BAY189344, NSC800525), ceralasertib (AZD6738, NSC777638), TAK-243 (NSC785004), alisertib (NSC759677), etoposide (NSC141540), topotecan (NSC609699), eribulin (NSC707389), gemcitabine (NSC613327), carboplatin (NSC241240), cisplatin (NSC119875), and SN-38 (NSC673596) were obtained from the National Cancer Institute (NCI) Developmental Therapeutics Program Chemical Repository (32). The FDA-approved anticancer drug set is available from the Developmental Therapeutics Program at https://dtp.cancer.gov/organization/dscb/obtaining/available plates.htm. […] The stock solutions were prepared in dimethyl sulfoxide (DMSO, Sigma-Aldrich, St. Louis, MO, cat. D2650), except for the platinum compounds which were prepared in saline (Quality Biological, Gaithersburg, MD, cat. 114-055-101), at 800-fold the tested concentration and stored at -70 degrees C prior to their use. All drugs and investigational agents were tested over a range starting from a high concentration at or near the clinical Cmax and decreasing in half-log increments. If the clinical Cmax for an agent had not been determined, the highest concentration tested was 10 microM (Table 1).
Cell Culture. All cells were maintained in an incubator at 37 degrees C and 5% CO2 with 95% humidity. The PDC lines were cultured according to standard operating procedures established by the NCI PDMR (https://pdmr.cancer.gov). Briefly, all PDCs were thawed and cultured in Matrigel-coated flasks prepared with a working solution of 1X Ham's F-12 nutrient mix, without supplementation (Invitrogen, Waltham, MA, cat. 11765054), 100 U/mL penicillin-streptomycin (Invitrogen, cat. 15140122), and 2.5% Matrigel (Corning Inc., Corning, NY, cat. 354248) for the first three passages. All PDCs were cultured in complete DMEM/F-12 media containing advanced DMEM/F-12 (Invitrogen, cat. 12634028), 4.9% defined fetal bovine serum, heat inactivated (HyClone Laboratories Inc., Logan, UT, cat. SH30070.03HI), 389 ng/mL hydrocortisone (Sigma-Aldrich, cat. H4001), 9.7 ng/mL human EGF recombinant protein (Invitrogen, cat. PHG0313), 23.4 microg/mL adenine (Sigma-Aldrich, cat. A2786), 97.3 U/mL penicillin-streptomycin (Invitrogen, cat. 15140122), 1.9 mM L-glutamine (Invitrogen, cat. 25030081), and 9.7 microM Y-27632 dihydrochloride (Tocris Bioscience, Bristol, United Kingdom, cat. 1254). The PDCs were cultured in complete DMEM/F12 media without 10 microM Y-27632 dihydrochloride for at least two passages prior to the screen. The established cell lines NCI-H1341 and […] were cultured in DMEM/F-12, HEPES (Invitrogen, cat. 11330032), 5% defined fetal bovine serum (HyClone Laboratories Inc., cat. SH30070.03), ITS premix universal culture supplement [insulin (5 microg/mL), transferrin (5 microg/mL), and selenious acid (5 ng/mL)] […]

[1] = second compound 0.1 µM, first compound 0.0316 µM
[2] = second compound 0.1 µM, first compound 0.1 µM
[3] = second compound 0.316 µM, first compound 0.0316 µM
[4] = second compound 0.316 µM, first compound 0.1 µM
[5] = second compound 1 µM, first compound 0.0316 µM
[6] = second compound 1 µM, first compound 0.1 µM
[7] = second compound 3.16 µM, first compound 0.0316 µM
[8] = second compound 3.16 µM, first compound 0.1 µM
[9] = second compound 10 µM, first compound 0.0316 µM
[10] = second compound 10 µM, first compound 0.1 µM
[11] = second compound 0.1 µM, first compound 0.316 µM
[12] = second compound 0.1 µM, first compound 1 µM
[13] = second compound 0.1 µM, first compound 3.16 µM
[14] = second compound 0.1 µM, first compound 10 µM
[15] = second compound 0.316 µM, first compound 0.316 µM
[16] = second compound 0.316 µM, first compound 1 µM
[17] = second compound 0.316 µM, first compound 3.16 µM
[18] = second compound 0.316 µM, first compound 10 µM
[19] = second compound 1 µM, first compound 0.316 µM
[20] = second compound 1 µM, first compound 1 µM
[21] = second compound 1 µM, first compound 3.16 µM
[22] = second compound 1 µM, first compound 10 µM
[23] = second compound 3.16 µM, first compound 0.316 µM
[24] = second compound 3.16 µM, first compound 1 µM
[25] = second compound 3.16 µM, first compound 3.16 µM
[26] = second compound 3.16 µM, first compound 10 µM
[27] = second compound 10 µM, first compound 0.316 µM
[28] = second compound 10 µM, first compound 1 µM
[29] = second compound 10 µM, first compound 3.16 µM
[30] = second compound 10 µM, first compound 10 µM
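Note: spheroids exposed to compounds for seven days before the viability read.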
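Throughout, for viability, T/C: luminescent signal used as a stand-in for viable cell amount; 100% = DMSO vehicle control wells.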

IC50 (second compound 0.1 µM): 14.1 nM
IC50 (second compound 0.316 µM): 14.5 nM
IC50 (second compound 1 µM): 15 nM
IC50 (second compound 3.16 µM): 11.3 nM
IC50 (second compound 10 µM): 12.7 nM
Compound: CC[C@@]1(O)C(=O)OCc2c1cc1n(c2=O)Cc2cc3c(CN(C)C)c(O)ccc3nc2-1 + CC(CO)NC(=O)c1cc(-c2ccc(Cl)cc2)nn(-c2cnn(C)c2)c1=O
viability, T/C (second compound 0.1 µM, first compound 0.000316 µM): 101%
viability, T/C (second compound 0.1 µM, first compound 0.001 µM): 101%
viability, T/C (second compound 0.1 µM, first compound 0.00316 µM): 89.5%
viability, T/C (second compound 0.1 µM, first compound 0.01 µM): 57.3%
viability, T/C [1]: 32.2%
viability, T/C [2]: 21.5%
viability, T/C (second compound 0.316 µM, first compound 0.000316 µM): 96.5%
viability, T/C (second compound 0.316 µM, first compound 0.001 µM): 102%
viability, T/C (second compound 0.316 µM, first compound 0.00316 µM): 93.5%
viability, T/C (second compound 0.316 µM, first compound 0.01 µM): 59.6%
viability, T/C [3]: 30.1%
viability, T/C [4]: 22.2%
viability, T/C (second compound 1 µM, first compound 0.000316 µM): 90.4%
viability, T/C (second compound 1 µM, first compound 0.001 µM): 102%
viability, T/C (second compound 1 µM, first compound 0.00316 µM): 91%
viability, T/C (second compound 1 µM, first compound 0.01 µM): 62.2%
viability, T/C [5]: 27.6%
viability, T/C [6]: 22%
viability, T/C (second compound 3.16 µM, first compound 0.000316 µM): 88.3%
viability, T/C (second compound 3.16 µM, first compound 0.001 µM): 102%
viability, T/C (second compound 3.16 µM, first compound 0.00316 µM): 77.1%
viability, T/C (second compound 3.16 µM, first compound 0.01 µM): 55.5%
viability, T/C [7]: 24.7%
viability, T/C [8]: 22.7%
viability, T/C (second compound 10 µM, first compound 0.000316 µM): 75%
viability, T/C (second compound 10 µM, first compound 0.001 µM): 75.4%
viability, T/C (second compound 10 µM, first compound 0.00316 µM): 78.3%
viability, T/C (second compound 10 µM, first compound 0.01 µM): 56.2%
viability, T/C [9]: 26.5%
viability, T/C [10]: 24.1%

IC50 (second compound 0.1 µM): 279 nM
IC50 (second compound 0.316 µM): 281 nM
IC50 (second compound 1 µM): 260 nM
IC50 (second compound 3.16 µM): 197 nM
IC50 (second compound 10 µM): 81.6 nM
Compound: COc1cc(C2c3cc4c(cc3C(OC3OC5COC(C)OC5C(O)C3O)C3COC(=O)C23)OCO4)cc(OC)c1O (stereo not given) + CC(CO)NC(=O)c1cc(-c2ccc(Cl)cc2)nn(-c2cnn(C)c2)c1=O
viability, T/C [1]: 102%
viability, T/C [2]: 83.9%
viability, T/C [11]: 45.4%
viability, T/C [12]: 20.3%
viability, T/C [13]: 15.5%
viability, T/C [14]: 8.93%
viability, T/C [3]: 92.8%
viability, T/C [4]: 90.6%
viability, T/C [15]: 45%
viability, T/C [16]: 17.8%
viability, T/C [17]: 17.6%
viability, T/C [18]: 8.41%
viability, T/C [5]: 89.2%
viability, T/C [6]: 80.2%
viability, T/C [19]: 42.6%
viability, T/C [20]: 20.7%
viability, T/C [21]: 16.4%
viability, T/C [22]: 8.47%
viability, T/C [7]: 84.5%
viability, T/C [8]: 71.6%
viability, T/C [23]: 33.7%
viability, T/C [24]: 20.2%
viability, T/C [25]: 14.5%
viability, T/C [26]: 7.04%
viability, T/C [9]: 68.3%
viability, T/C [10]: 47.4%
viability, T/C [27]: 25.2%
viability, T/C [28]: 19.2%
viability, T/C [29]: 10.4%
viability, T/C [30]: 6.47%

IC50 (second compound 0.1 µM): < 31.6 nM
IC50 (second compound 0.316 µM): < 31.6 nM
IC50 (second compound 1 µM): < 31.6 nM
IC50 (second compound 3.16 µM): < 31.6 nM
IC50 (second compound 10 µM): < 31.6 nM
Compound: Nc1ccn(C2OC(CO)C(O)C2(F)F)c(=O)n1 (stereo not given) + CC(CO)NC(=O)c1cc(-c2ccc(Cl)cc2)nn(-c2cnn(C)c2)c1=O
viability, T/C [1]: 5.01%
viability, T/C [2]: 4.63%
viability, T/C [11]: 4.51%
viability, T/C [12]: 3.71%
viability, T/C [13]: 4.16%
viability, T/C [14]: 4.38%
viability, T/C [3]: 4.41%
viability, T/C [4]: 4.36%
viability, T/C [15]: 4.44%
viability, T/C [16]: 4.03%
viability, T/C [17]: 4.3%
viability, T/C [18]: 4.3%
viability, T/C [5]: 5.04%
viability, T/C [6]: 4.97%
viability, T/C [19]: 4.99%
viability, T/C [20]: 4.1%
viability, T/C [21]: 5.44%
viability, T/C [22]: 4.54%
viability, T/C [7]: 5.3%
viability, T/C [8]: 4.96%
viability, T/C [23]: 5.78%
viability, T/C [24]: 5.41%
viability, T/C [25]: 5.04%
viability, T/C [26]: 4.36%
viability, T/C [9]: 5.62%
viability, T/C [10]: 5.79%
viability, T/C [27]: 5.42%
viability, T/C [28]: 5.48%
viability, T/C [29]: 5.6%
viability, T/C [30]: 4.96%
